Results taken from ChEMBL document CHEMBL5241080, “Quinoline anticancer agents active on DNA and DNA-interacting proteins: From classical to emerging therapeutic targets” (Eur J Med Chem, 2021).
Values belong to the molecule of their own block, whether it stands above or below them.

Columns and labels:
[1] = system: HCT-116; test: Antiproliferative activity against human HCT-116 cells; format: functional, cell-based
[2] = system: HepG2; test: Antiproliferative activity against human HepG2 cells; format: functional, cell-based
[3] = system: A549; test: Antiproliferative activity against human A549 cells; format: functional, cell-based
[4] = system: CFPAC-1; test: Antiproliferative activity against human CFPAC-1 cells; format: functional, cell-based
[5] = target: Histone-lysine N-methyltransferase SMYD3 (Homo sapiens, UniProt Q9H7B4); test: Inhibition of SMYD3 (unknown origin)
[6] = system: HPAC; test: Antiproliferative activity against human HPAC cells; format: functional, cell-based
[7] = system: HT-1080; test: Antiproliferative activity against human HT-1080 cells assessed as reduction cell viability incubated for 48 hrs by MTT assay; format: functional, cell-based; settings: HT-1080, 48 h
[8] = system: KG-1; test: Antiproliferative activity against human KG-1 cells; format: functional, cell-based
[9] = system: HL-60; test: Antiproliferative activity against human HL-60 cells assessed as reduction cell viability incubated for 48 hrs by MTT assay; format: functional, cell-based; settings: HL-60, 48 h
[10] = target: DNA (cytosine-5)-methyltransferase 1 (Homo sapiens, UniProt P26358); test: Inhibition of his-tagged human DNMT1 by scintillation counter analysis
[11] = target: T1, DNA (cytosine-5)-methyltransferase 3A (Homo sapiens, UniProt Q9Y6K1); test: Inhibition of C-terminal biotin-labelled human DNMT3A by multilabel plate reader analysis
[12] = target: T1, DNA (cytosine-5)-methyltransferase 3A; test: Inhibition of DNMT3A (unknown origin)
[13] = system: HeLa; test: Antiproliferative activity against human HeLa cells assessed as reduction cell viability incubated for 48 hrs by MTT assay; format: functional, cell-based
[14] = system: NCI-H1299; test: Antiproliferative activity against human NCI-H1299 cells assessed as reduction cell viability incubated for 48 hrs by MTT assay; format: functional, cell-based; settings: NCI-H1299, 48 h
[15] = system: HCT-116; test: Antiproliferative activity against human HCT-116 cells assessed as reduction cell viability incubated for 48 hrs by MTT assay; format: functional, cell-based; settings: HCT-116, 48 h
[16] = system: M14; test: Antiproliferative activity against human M14 cells assessed as reduction cell viability incubated for 48 hrs by MTT assay; format: functional, cell-based; settings: M14, 48 h
[17] = system: MCF7; test: Antiproliferative activity against human MCF7 cells assessed as reduction cell viability incubated for 48 hrs by MTT assay; format: functional, cell-based; settings: MCF7, 48 h
[18] = system: MDA-MB-231; test: Cytotoxicity against human MDA-MB-231 cells at 1 uM by MTT assay; format: functional
[19] = system: WI-38; test: Antiproliferative activity against human WI-38 cells; format: functional, cell-based
[20] = system: U2OS; test: Antiproliferative activity against human U2OS cells; format: functional, cell-based
[21] = system: HeLa; test: Antiproliferative activity against human HeLa cells; format: functional, cell-based
[22] = system: HT-1080; test: Antiproliferative activity against human HT-1080 cells; format: functional, cell-based
[23] = system: MIA PaCa-2; test: Antiproliferative activity against human MIA PaCa-2 cells; format: functional, cell-based
[24] = system: U-251; test: Antiproliferative activity against human U-251 cells; format: functional, cell-based
[25] = target: Histone deacetylase; test: Inhibition of HDAC (unknown origin); format: protein assay, Homo sapiens
[26] = system: NCI-H460; test: Antiproliferative activity against human NCI-H460 cells; format: functional, cell-based
[27] = system: T-24; test: Cytotoxicity against human T24 cells; format: functional, cell-based
[28] = system: MGC-803; test: Cytotoxicity against human MGC-803 cells; format: functional, cell-based
[29] = system: NCI-H460; test: Cytotoxicity against human NCI-H460 cells; format: functional, cell-based
[30] = system: HepG2; test: Cytotoxicity against human HepG2 cells; format: functional, cell-based
[31] = system: SR; test: Cytotoxicity against human SR cells incubated for 24 hrs by MTT assay; format: functional
[32] = target: T2, DNA topoisomerase 1 (Homo sapiens, UniProt P11387); test: Inhibition of human topoisomerase 1 incubated for 2 hrs by ELISA analysis
T2 sequence (P11387 whole entry): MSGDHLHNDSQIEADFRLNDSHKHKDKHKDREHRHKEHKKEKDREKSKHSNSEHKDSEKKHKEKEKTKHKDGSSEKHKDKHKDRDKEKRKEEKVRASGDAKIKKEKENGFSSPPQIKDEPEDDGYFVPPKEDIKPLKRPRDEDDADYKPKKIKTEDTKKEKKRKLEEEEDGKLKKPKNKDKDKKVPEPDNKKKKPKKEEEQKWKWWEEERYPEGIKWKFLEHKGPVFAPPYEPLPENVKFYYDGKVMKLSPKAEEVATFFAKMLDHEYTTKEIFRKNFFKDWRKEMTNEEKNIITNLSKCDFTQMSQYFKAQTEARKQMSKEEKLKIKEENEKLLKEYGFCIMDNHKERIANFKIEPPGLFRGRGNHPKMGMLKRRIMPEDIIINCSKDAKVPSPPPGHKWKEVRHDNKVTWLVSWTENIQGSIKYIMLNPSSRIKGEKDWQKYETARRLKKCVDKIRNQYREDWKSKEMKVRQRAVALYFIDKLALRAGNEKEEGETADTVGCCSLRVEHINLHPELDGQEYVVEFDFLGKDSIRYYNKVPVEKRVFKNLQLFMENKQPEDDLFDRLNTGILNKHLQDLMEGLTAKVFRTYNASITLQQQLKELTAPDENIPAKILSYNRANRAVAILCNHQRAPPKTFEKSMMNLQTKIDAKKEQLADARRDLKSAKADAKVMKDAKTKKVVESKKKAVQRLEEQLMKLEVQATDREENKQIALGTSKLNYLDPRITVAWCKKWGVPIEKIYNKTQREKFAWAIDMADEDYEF

[33] = system: MDA-MB-435; test: Cytotoxicity against human MDA-MB-435 cells incubated for 24 hrs by MTT assay; format: functional
[34] = system: HL-60; test: Cytotoxicity against human HL-60 cells incubated for 24 hrs by MTT assay; format: functional
[35] = system: CAKI-1; test: Antiproliferative activity against human CAKI-1 cells assessed as inhibition of cell growth incubated for 72 hrs by MTT assay; format: functional, cell-based; settings: CAKI-1, 72 h
[36] = system: MCF7; test: Antiproliferative activity against human MCF7 cells assessed as inhibition of cell growth incubated for 72 hrs by MTT assay; format: functional, cell-based; settings: MCF7, 72 h
[37] = system: SK-MEL-28; test: Antiproliferative activity against human SK-MEL-28 cells; format: functional, cell-based
[38] = system: SK-MEL-5; test: Antiproliferative activity against human SK-MEL-5 cells; format: functional, cell-based
[39] = Antiproliferative activity against human A375P cells; format: functional, cell-based
[40] = system: U-937; test: Antiproliferative activity against human U-937 cells assessed as reduction cell viability incubated for 48 hrs by MTT assay; format: functional, cell-based; settings: U-937, 48 h

T1 sequence (Q9Y6K1 whole entry, looked up): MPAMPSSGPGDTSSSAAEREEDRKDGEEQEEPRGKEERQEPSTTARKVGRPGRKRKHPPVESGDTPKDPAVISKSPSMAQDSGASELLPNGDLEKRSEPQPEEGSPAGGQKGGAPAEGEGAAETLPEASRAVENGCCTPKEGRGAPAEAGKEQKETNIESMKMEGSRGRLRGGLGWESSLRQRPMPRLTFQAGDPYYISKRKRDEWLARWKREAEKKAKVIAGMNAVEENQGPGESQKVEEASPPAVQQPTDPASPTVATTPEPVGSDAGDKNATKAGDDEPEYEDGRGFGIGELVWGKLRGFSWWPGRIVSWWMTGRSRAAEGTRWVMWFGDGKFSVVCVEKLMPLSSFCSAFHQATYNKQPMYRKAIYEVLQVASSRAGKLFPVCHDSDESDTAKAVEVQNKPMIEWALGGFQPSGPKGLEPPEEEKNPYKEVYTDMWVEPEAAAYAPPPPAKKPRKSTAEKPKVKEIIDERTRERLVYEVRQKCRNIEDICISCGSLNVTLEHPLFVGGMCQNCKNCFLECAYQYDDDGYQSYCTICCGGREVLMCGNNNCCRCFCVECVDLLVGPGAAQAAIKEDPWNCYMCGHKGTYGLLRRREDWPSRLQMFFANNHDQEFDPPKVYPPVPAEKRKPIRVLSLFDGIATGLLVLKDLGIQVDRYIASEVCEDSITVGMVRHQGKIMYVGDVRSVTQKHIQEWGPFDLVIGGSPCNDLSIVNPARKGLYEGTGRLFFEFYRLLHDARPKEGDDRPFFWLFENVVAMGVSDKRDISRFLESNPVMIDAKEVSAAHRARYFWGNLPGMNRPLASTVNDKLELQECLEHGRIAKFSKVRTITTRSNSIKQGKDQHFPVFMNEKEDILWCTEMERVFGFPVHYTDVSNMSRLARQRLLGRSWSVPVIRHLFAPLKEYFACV
Chain of DNA (cytosine-5)-methyltransferase 1 (P26358 whole entry): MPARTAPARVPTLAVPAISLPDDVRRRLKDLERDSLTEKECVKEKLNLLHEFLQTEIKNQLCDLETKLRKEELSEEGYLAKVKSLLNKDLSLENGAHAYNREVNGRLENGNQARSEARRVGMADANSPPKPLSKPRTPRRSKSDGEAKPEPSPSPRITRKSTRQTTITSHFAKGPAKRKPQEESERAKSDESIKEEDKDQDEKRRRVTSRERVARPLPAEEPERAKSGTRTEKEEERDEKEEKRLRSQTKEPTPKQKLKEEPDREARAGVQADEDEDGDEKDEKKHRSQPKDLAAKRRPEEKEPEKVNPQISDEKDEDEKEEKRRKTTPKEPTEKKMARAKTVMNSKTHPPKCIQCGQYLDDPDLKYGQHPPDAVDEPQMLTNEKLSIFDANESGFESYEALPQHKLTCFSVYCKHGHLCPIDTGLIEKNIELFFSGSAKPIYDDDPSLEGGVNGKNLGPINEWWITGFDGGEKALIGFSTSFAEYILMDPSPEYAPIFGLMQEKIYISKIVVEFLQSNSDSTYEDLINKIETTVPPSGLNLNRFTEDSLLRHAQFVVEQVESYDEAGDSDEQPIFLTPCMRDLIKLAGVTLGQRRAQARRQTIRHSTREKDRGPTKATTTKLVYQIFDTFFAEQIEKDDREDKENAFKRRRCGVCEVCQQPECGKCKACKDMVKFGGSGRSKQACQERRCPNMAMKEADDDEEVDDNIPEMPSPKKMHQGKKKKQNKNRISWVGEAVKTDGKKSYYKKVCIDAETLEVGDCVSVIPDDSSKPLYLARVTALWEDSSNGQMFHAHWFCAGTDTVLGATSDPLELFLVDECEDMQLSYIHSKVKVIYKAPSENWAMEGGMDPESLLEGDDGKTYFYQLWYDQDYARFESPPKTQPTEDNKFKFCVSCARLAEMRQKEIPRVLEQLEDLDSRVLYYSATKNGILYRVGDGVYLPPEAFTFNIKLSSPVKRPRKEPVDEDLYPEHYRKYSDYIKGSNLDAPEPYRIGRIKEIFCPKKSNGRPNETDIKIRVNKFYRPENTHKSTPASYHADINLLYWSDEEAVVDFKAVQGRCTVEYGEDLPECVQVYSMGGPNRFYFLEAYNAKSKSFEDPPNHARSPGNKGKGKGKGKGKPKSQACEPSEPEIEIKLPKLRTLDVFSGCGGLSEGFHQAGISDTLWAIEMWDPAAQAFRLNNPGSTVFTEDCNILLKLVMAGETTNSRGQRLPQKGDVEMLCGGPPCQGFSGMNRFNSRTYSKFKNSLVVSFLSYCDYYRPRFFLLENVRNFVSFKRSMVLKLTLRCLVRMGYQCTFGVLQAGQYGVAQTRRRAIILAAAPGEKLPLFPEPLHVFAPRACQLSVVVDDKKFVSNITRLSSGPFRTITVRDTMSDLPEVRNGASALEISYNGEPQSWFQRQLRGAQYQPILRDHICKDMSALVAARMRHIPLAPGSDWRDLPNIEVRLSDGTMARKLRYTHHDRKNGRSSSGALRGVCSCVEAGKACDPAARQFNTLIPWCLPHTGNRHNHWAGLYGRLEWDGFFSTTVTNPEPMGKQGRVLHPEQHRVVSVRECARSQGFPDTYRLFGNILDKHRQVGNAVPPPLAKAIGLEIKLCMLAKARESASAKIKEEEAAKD
Chain of Histone-lysine N-methyltransferase SMYD3 (Q9H7B4 whole entry): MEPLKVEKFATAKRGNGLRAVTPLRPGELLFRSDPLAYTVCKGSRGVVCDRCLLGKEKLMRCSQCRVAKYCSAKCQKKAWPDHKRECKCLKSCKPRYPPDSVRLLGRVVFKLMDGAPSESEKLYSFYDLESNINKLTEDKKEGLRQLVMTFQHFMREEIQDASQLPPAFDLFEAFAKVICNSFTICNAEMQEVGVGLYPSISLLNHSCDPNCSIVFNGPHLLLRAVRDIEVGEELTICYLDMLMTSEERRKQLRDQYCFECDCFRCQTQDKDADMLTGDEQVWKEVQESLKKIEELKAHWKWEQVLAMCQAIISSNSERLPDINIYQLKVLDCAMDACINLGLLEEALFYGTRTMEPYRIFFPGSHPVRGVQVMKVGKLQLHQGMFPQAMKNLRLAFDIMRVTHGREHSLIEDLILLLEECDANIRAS

Structure (SMILES): O[C@@H]1[C@@H](O)[C@H](Oc2ccc(O[C@@H]3O[C@H](COc4cccc5cccnc45)[C@@H](O)[C@H](O)[C@H]3O)cc2)O[C@H](COc2cccc3cccnc23)[C@H]1O
- Activity [18]: 34.9%

Structure (SMILES): CCN(CC)CCCNc1ccc2c(c1)[nH]c1c2c[n+](C)c2ccc(NCCCN(CC)CC)cc12
- IC50 [23]: 220 nM

Structure (SMILES): CCCCCCOc1ccc(/C=N/Nc2cc(C)nc3ccc(Cl)cc23)cc1
- IC50 [27]: 3170 nM
- IC50 [28]: 2200 nM
- IC50 [29]: 3220 nM
- IC50 [30]: 4880 nM

Structure (SMILES): CC[C@@]1(O)C(=O)OCc2c1cc1n(c2=O)Cc2c-1nc1cc(F)c(OC)cc1c2C
- IC50 [37]: 1.4 nM
- IC50 [38]: 2.6 nM
- IC50 [39]: 1.9 nM

Structure (SMILES): O=C(Nc1ccc(Nc2ccnc3ccccc23)cc1)c1cccc(Nc2ccnc3ccccc23)c1
- IC50 [7]: 2700 nM
- IC50 [40]: 700 nM
- IC50 [9]: 1600 nM
- IC50 [10]: 27000 nM
- IC50 [11]: 800 nM
- IC50 [13]: 2000 nM
- IC50 [14]: 5300 nM
- IC50 [15]: 1500 nM
- IC50 [16]: 4700 nM
- IC50 [17]: 300 nM

Structure (SMILES): O=C(Nc1cccc(Nc2ccnc3ccccc23)c1)c1cccc(Nc2ccnc3ccccc23)c1
- IC50 [40]: 1500 nM

Continued, in another order:

- IC50 [1]: 11000 nM
- IC50 [2]: 11000 nM
- IC50 [3]: 11000 nM
- IC50 [5]: 40 nM
Structure (SMILES): CCCOC(=O)N1CCN(C(=O)c2ccc3c(Cl)c4c(nc3c2)CCC(CCN)C4)CC1 (configuration not stated)
- IC50 [4]: 11000 nM
- IC50 [6]: 11000 nM

- IC50 [7]: 500 nM
- IC50 [9]: 200 nM
- IC50 [10]: 23000 nM
- IC50 [11]: 6000 nM
- IC50 [12]: 900 nM
- IC50 [13]: 140 nM
- IC50 [14]: 14700 nM
- IC50 [15]: 1000 nM
- IC50 [17]: 4100 nM
Structure (SMILES): O=C(Nc1ccc(Nc2ccnc3ccccc23)cc1)c1ccc(Nc2ccncc2)cc1
- IC50 [8]: 960 nM
- IC50 [16]: 500 nM

- IC50 [20]: 300 nM
- IC50 [21]: 300 nM
- IC50 [22]: 300 nM
Structure (SMILES): NCCCOc1cc(NC(=O)c2cc(Cl)cc(C(=O)Nc3cc(OCCCN)c4ccccc4n3)n2)nc2ccccc12
- IC50 [19]: 300 nM

- IC50 [24]: 0.6 nM
- IC50 [1]: 600 nM
- IC50 [25]: 1.5 nM
- IC50 [26]: 1 nM
Structure (SMILES): CC1(C)CC(=O)Nc2ccc(C(=O)NCC3CCC(/C=C/C(=O)NO)CC3)cc21 (configuration not stated)

- IC50 [32]: 278 nM
Structure (SMILES): N#CC1=C(N)Oc2c(ccc3ccccc23)C1c1cc2ccccc2n2nnnc12 (configuration not stated)
- GI50 [31]: 232 nM
- GI50 [33]: 300 nM
- GI50 [34]: 260 nM

- IC50 [36]: 2400 nM
Structure (SMILES): CC1CN(c2nc3ccccc3c3c2-c2ccc(Cl)cc2C3=O)CCN1 (configuration not stated)
- IC50 [35]: 1660 nM

- IC50 [1]: < 10000 nM
Structure (SMILES): CCN(CC)CCOC(=O)c1ccc2c(c1)C1C(C(=O)c3ccccc3N1CCN(CC)CC)N2CCN(CC)CC (configuration not stated)
